Laboratory results taken from BindingDB's records for patent US10870641 (Ribon Therapeutics, 2020).
pIC50: −log10 of the molar value.

Target: T1, Protein mono-ADP-ribosyltransferase TIPARP (Homo sapiens, UniProt Q7Z3E1)
T1 sequence (Q7Z3E1 whole entry): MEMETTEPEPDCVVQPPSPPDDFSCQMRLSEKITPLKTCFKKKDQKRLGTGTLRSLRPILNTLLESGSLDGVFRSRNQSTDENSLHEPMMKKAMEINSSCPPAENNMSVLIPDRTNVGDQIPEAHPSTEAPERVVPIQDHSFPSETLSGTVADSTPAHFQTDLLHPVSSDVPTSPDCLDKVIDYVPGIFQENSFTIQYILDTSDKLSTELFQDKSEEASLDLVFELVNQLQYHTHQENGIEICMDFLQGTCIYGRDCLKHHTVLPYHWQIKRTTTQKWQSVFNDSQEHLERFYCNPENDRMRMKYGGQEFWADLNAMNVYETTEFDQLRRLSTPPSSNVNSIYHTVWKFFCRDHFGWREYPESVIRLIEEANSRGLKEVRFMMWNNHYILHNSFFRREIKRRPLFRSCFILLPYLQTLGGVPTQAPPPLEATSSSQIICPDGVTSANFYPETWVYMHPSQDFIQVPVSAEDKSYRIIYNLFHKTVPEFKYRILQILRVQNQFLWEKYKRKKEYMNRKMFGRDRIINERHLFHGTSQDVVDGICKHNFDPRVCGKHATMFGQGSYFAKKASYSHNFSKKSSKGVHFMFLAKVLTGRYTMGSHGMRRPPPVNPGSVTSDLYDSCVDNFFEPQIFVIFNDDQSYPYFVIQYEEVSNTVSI
Assay: Enzymatic Assay
Description: Displacement of Probe A, a biotinylated probe binding to the TIPARP active site, was measured using a time-resolved fluorescence energy transfer (TR-FRET) assay. 20 nL of a dose response curve of each test compound was spotted in black 384-well polystyrene proxiplates (Perkin Elmer) using a Mosquito (TTP Labtech). Reactions were performed in a 8 μL volume by adding […] of TIPARP and Probe A in assay buffer (20 mM HEPES pH=8, 100 mM NaCl, 0.1% bovine serum albumin, 2 mM DTT and 0.002% Tween20), incubating with test compound at 25° C. for 30 min, then adding 2 μL of ULight-anti 6×His and LANCE Eu-W1024 labeled streptavidin (Perkin Elmer). The final concentrations of TIPARP and Probe A were 6 nM and 2 nM, respectively.

| pIC50 | IC50 | Compound |
| --- | --- | --- |
| > 7.00 |  | N#Cc1ccc(N2CCN(C(=O)/C=C/COC[C@H]3CCCN3c3cn[nH]c(=O)c3C(F)(F)F)CC2)nc1 [US10870641, Example 96B] |
| < 6.00 |  | N#Cc1cnc(N2CCN(C(=O)c3cc(OC[C@@H]4c5ccccc5CN4c4cn[nH]c(=O)c4C(F)(F)F)ccn3)CC2)nc1 [US10870641, Example 64B] |
|  | in the range around 0.55 µM | C[C@@H](CC(=O)N1CCN(c2ccc(C#N)cn2)CC1)OCCOc1cn[nH]c(=O)c1C(F)(F)F [US10870641, Example 538A] |
